Assay results as given in patent US20230364111A1 (priority 2020, published 2023).
pIC50: −log10 of the molar value. Values after ≈ are worked out from the molar mass of the structure shown. “Also recorded” adds a separate entry of the source. Read-outs that look alike come from different tables or passages of the source.

Assays:
SARS-CoV-2 Wk-521 strain = assay: SARS-CoV-2 infection assay, viral RNA in culture supernatant (VeroE6/TMPRSS2 cells); assay type: cell-based
TGFβ signaling = assay type: cell-based; conditions: 10 μM; NIH3T3 cells stimulated with 20 ng/mL TGFβ
Hedgehog (Hh) signaling = assay type: cell-based; conditions: 10 μM; NIH3T3 cells with CAPAN-1 conditioned medium containing Shh
[1] = test system: double-membrane vesicles (DMVs) in SARS-CoV-2-infected cells; assay: Electron microscopy of double-membrane vesicle (DMV) formation; assay type: cell-based; conditions: 10 μM Oxy210, Oxy232 (10 μM)
[2] = test system: SARS-CoV-2 (isolate USA WA1/2020); assay: SARS-CoV-2 infection of Calu-3 cells (dsRNA+ cells, automated microscopy); assay type: cell-based
Method: (§1) FIGS. 12A-12C depict dose-response curves for Oxy232. (FIG. 12A) Secreted viral RNA in the VeroE6 culture supernatant 24 h post-inoculation was quantified by real-time RT-PCR. Cell viability of Oxy232 treated cells evaluated with an MTT assay. (FIG. 12B) Secreted viral RNA of 3 SARS-CoV-2 strains in the VeroE6 culture supernatant 24 h post-inoculation was quantified by real-time RT-PCR. (FIG. 12C) Calu-3 (ATCC) cells were pretreated with Oxy232 for 2 hours prior to continuous infection with SARS-CoV-2 (isolate USA WA1/2020) at MOI=0.5. 48 h post-infection, cells were fixed, immune-strained, and imaged by automated microscopy for infection (dsRNA+ cells/total cell number) and cell number.
According to a previously published report (Ohashi et al., Identification of Anti-Severe Acute Respiratory Syndrome-Related Coronavirus 2 (SARS-CoV-2) Oxysterol Derivatives In Vitro. Int J Mol Sci. 2021; 22(6):3163. PMCID: PMC8003796) inventors have tested a collection of naturally occurring and semisynthetic oxysterol derivatives in a SARS-CoV-2 cell culture infection assay in VeroE6/TMPRSS2 cells. […] See, Ohashi et al., Int J Mol Sci. 2021; 22(6):3163 and Dittmar et al. Drug repurposing screens reveal cell-type-specific entry pathways and FDA-approved drugs active against SARS-Cov-2. Cell Rep. […] PMCID: PMC7985926. […] Without wishing to be bound by a theory, biological activities of oxysterols, including measures of cell viability, can heavily depend on in vitro assay conditions, such as the fetal bovine serum concentration or the duration of pretreatment with the compounds, among other factors, that may not translate to the in vivo safety of the compounds.

[3] = test system: SARS-CoV-2 TY7-501 (Brazil strain); assay: SARS-CoV-2 TY7-501 strain infection in VeroE6/TMPRSS2 cells; assay type: cell-based; conditions: viral RNA 24 h post-inoculation
Method: as §1
(§2) According to a previously published report (Ohashi et al., Identification of Anti-Severe Acute Respiratory Syndrome-Related Coronavirus 2 (SARS-CoV-2) Oxysterol Derivatives In Vitro. Int J Mol Sci. 2021; 22(6):3163. PMCID: PMC8003796) inventors have tested a collection of naturally occurring and semisynthetic oxysterol derivatives in a SARS-CoV-2 cell culture infection assay in VeroE6/TMPRSS2 cells. […] See, Ohashi et al., Int J Mol Sci. 2021; 22(6):3163 and Dittmar et al. Drug repurposing screens reveal cell-type-specific entry pathways and FDA-approved drugs active against SARS-Cov-2. Cell Rep. […] PMCID: PMC7985926. […]

[4] = test system: SARS-CoV-2 TY8-612 (South Africa strain); assay: SARS-CoV-2 TY8-612 strain infection in VeroE6/TMPRSS2 cells; assay type: cell-based; conditions: viral RNA 24 h post-inoculation
Method: as §1, §2

VeroE6/TMPRSS2 cells = conditions: MTT assay; 24 h; VeroE6/TMPRSS2 cells
Calu-3 cells = conditions: at higher concentrations; automated microscopy
[5] = for Mean Oxy232 Levels in Lung Tissue (ng/g) / Mean Oxy232 Levels in Lung Tissue (μM): oral 200 mg/kg
in vitro [6] = conditions: African green monkey
in vitro [7] = conditions: human

## CC[C@@](O)(CCc1cccnc1)[C@H]1CC[C@H]2[C@@H]3CC[C@H]4C[C@@H](O)CC[C@]4(C)[C@H]3CC[C@]12C [Oxy232, (3S,5S,8R,9S,10S,13S,14S,17S)-17-((R)-3-hydroxy-1-(pyridin-3-yl)pentan-3-yl)-10,13-dimethylhexadecahydro-1H-cyclopenta[a]phenanthren-3-ol]
SARS-CoV-2 Wk-521 strain; 24 h post-inoculation, natural oxysterols up to 30 μM, semi-synthetic up to 15 μM
  viral RNA in the culture supernatant: reduced viral RNA level in a dose-dependent manner
SARS-CoV-2 Wk-521 strain; Severe acute respiratory syndrome coronavirus 2, Vero C1008, read-out: IC50 VeroE6 cells (ng/mL)
  IC50: 2370 ng/mL
SARS-CoV-2 Wk-521 strain; Severe acute respiratory syndrome coronavirus 2, Vero C1008, read-out: IC90 VeroE6 cells (ng/mL), Table 6, same value in mass units
  IC90: 3250 ng/mL
SARS-CoV-2 Wk-521 strain; Severe acute respiratory syndrome coronavirus 2, Vero C1008, SARS-CoV-2, VeroE6, read-out: IC50 (VeroE6)
  pIC50: 5.27
SARS-CoV-2 Wk-521 strain; Severe acute respiratory syndrome coronavirus 2, Vero C1008, SARS-CoV-2, VeroE6, read-out: IC90 (VeroE6)
  IC90: 7.8 µM
SARS-CoV-2 Wk-521 strain; Severe acute respiratory syndrome coronavirus 2, Vero C1008, Table 6, read-out: IC50 VeroE6 cells
  pIC50: 5.27
SARS-CoV-2 Wk-521 strain; Severe acute respiratory syndrome coronavirus 2, Vero C1008, Table 6, read-out: IC90 VeroE6 cells
  IC90: 7.8 µM
SARS-CoV-2 Wk-521 strain; Severe acute respiratory syndrome coronavirus 2, VeroE6/TMPRSS2, 24 h, SARS-CoV-2 viral RNA in culture supernatant, 24 h post-inoculation, VeroE6/TMPRSS2 cells, read-out: IC90
  IC90: 7.8 µM
SARS-CoV-2 Wk-521 strain; Severe acute respiratory syndrome coronavirus 2, SARS-CoV-2 viral RNA in culture supernatant, 24 h post-inoculation, VeroE6/TMPRSS2 cells, read-out: IC50
  pIC50: 5.27
SARS-CoV-2 Wk-521 strain; Table 6, same value in mass units
  IC90 VeroE6 cells: 3429 ng/mL (≈ 7.8 µM)
SARS-CoV-2 Wk-521 strain; at 15 μM
  reduction of viral RNA production at the maximum: 99.9%
SARS-CoV-2 Wk-521 strain; cell-based assay, VeroE6/TMPRSS2
  anti-SARS-CoV-2 activity: superior anti-SARS-CoV-2 activity; also recorded: anti-SARS-CoV-2 activity comparable to Oxy210; also recorded: significant anti SARS-CoV-2 activity
SARS-CoV-2 Wk-521 strain; oxysterol derivatives at 10 or 30 uM, 24 h post-inoculation, VeroE6/TMPRSS2
  viral RNA levels in the culture supernatant: strongly reduced viral RNA levels
SARS-CoV-2 Wk-521 strain; statement in words
  SARS-CoV-2 replication: drastically reduced SARS-CoV-2 replication
SARS-CoV-2 Wk-521 strain; tested in multiple studies, VeroE6/TMPRSS2
  viral inhibition: greater than 99%
TGFβ signaling
  TGFβ inhibitory properties (CTGF mRNA): devoid of significant TGFβ pathway inhibitory properties
Hedgehog (Hh) signaling
  inhibitory activity toward Hh signaling (Gli1 mRNA): retains inhibitory activity toward Hh signaling
[1]
  DMV formation in SARS-CoV-2-infected cells: inhibit DMV formation
[2]; Severe acute respiratory syndrome coronavirus 2, Calu-3, read-out: IC50 Calu-3 cells (ng/ml)
  IC50: 3050 ng/mL
[2]; Severe acute respiratory syndrome coronavirus 2, Calu-3, read-out: IC90 Calu-3 cells (ng/ml)
  IC90: 5920 ng/mL
[2]; Severe acute respiratory syndrome coronavirus 2, Calu-3, Table 6, read-out: IC50 Calu-3 cells
  pIC50: 5.16
[2]; Severe acute respiratory syndrome coronavirus 2, Calu-3, Table 6, read-out: IC90 Calu-3 cells
  IC90: 13.5 µM
[2]; Severe acute respiratory syndrome coronavirus 2, SARS-CoV-2 USA WA1/2020, MOI=0.5, 48 h post-infection, Calu-3, read-out: IC50 (Calu-3)
  pIC50: 5.16
[2]; Severe acute respiratory syndrome coronavirus 2, SARS-CoV-2 USA WA1/2020, MOI=0.5, 48 h post-infection, Calu-3, read-out: IC90 (Calu-3)
  IC90: 13.5 µM
[2]; USA WA1/2020 isolate, at NIAID
  antiviral activity in Calu-3 human lung epithelial cells: confirmed the antiviral activity
[3]
  activity against the TY7-501 strain: undiminished activity
[4]
  activity against the TY8-612 strain: undiminished activity
VeroE6/TMPRSS2 cells
  CC50: > 15 µM
Calu-3 cells
  cell viability in Calu-3 cells: do affect cell viability
[5]; mice, time 0 h
  Mean Oxy232 Levels in Lung Tissue (ng/g): 0 ng/g
  Mean Oxy232 Levels in Lung Tissue (μM): 0 µM
[5]; mice, time 0.25 h
  Mean Oxy232 Levels in Lung Tissue (ng/g): 1500 ng/g
  Mean Oxy232 Levels in Lung Tissue (μM): 3.41 µM
[5]; mice, time 0.5 h
  Mean Oxy232 Levels in Lung Tissue (ng/g): 8055 ng/g
  Mean Oxy232 Levels in Lung Tissue (μM): 18.32 µM
[5]; mice, time 1 h
  Mean Oxy232 Levels in Lung Tissue (ng/g): 9427 ng/g
  Mean Oxy232 Levels in Lung Tissue (μM): 21.44 µM
[5]; mice, time 2 h
  Mean Oxy232 Levels in Lung Tissue (ng/g): 7764 ng/g
  Mean Oxy232 Levels in Lung Tissue (μM): 17.66 µM
[5]; mice, time 4 h
  Mean Oxy232 Levels in Lung Tissue (ng/g): 2916 ng/g
  Mean Oxy232 Levels in Lung Tissue (μM): 6.63 µM
[5]; mice, time 8 h
  Mean Oxy232 Levels in Lung Tissue (ng/g): 673 ng/g
  Mean Oxy232 Levels in Lung Tissue (μM): 1.53 µM
[5]; mice, time 24 h
  Mean Oxy232 Levels in Lung Tissue (ng/g): 122 ng/g
  Mean Oxy232 Levels in Lung Tissue (μM): 0.28 µM
[5]; oral dosing in mice
  tolerability of oral dosing: well tolerated
[5]; single dose 200 mg/kg, mice
  concentrations in lung tissue homogenate compared to plasma: generally higher than in plasma
  time lung homogenate concentration above Calu-3 IC50 levels: more than 3.5 h
  time lung homogenate concentration above VeroE6 IC50 levels: 5 h
  time plasma concentration above IC50 levels for antiviral activity (VeroE6/TMPRSS2): more than 3 hours
In vitro [6]
  CC50: > 15 µM
In vitro [7]
  CC50: 29.4 µM
